Values quoted from earlier work, collected in patent US6727104B2, “Microcolumn chromatographic immunoassays” (The Board of Regents of the University of Nebraska, priority 2001, dated 2004).
Where two headings read alike, the source gives them in different places.

Experiments:
[1] = biological target: T1, Thyroxine-Binding Globulin (Homo sapiens, UniProt P05543); settings: T4 Binding Site
T1 sequence (P05543 21-415): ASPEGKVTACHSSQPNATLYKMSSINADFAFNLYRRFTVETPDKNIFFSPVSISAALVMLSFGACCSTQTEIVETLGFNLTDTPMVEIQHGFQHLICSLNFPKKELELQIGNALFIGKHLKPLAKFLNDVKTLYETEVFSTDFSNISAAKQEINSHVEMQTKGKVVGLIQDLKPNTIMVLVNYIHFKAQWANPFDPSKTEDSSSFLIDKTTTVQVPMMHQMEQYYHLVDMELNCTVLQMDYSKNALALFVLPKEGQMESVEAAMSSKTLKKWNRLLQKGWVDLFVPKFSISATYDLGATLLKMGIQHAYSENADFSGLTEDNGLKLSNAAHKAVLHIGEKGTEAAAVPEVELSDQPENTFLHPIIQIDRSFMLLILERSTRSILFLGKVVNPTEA

[2] = biological target: Thyroxine-Binding Prealbumin (Homo sapiens, UniProt P02766)

Structure (SMILES): N[C@@H](Cc1cc(I)c(Oc2cc(I)c(O)c(I)c2)c(I)c1)C(=O)O [T4, L-Thyroxine]
- Ka [1]: 1e+10 M⁻¹
- Ka ([2]; High Affinity Site): 1e+07 M⁻¹
- Ka ([2]; Low Affinity Site): 300000 M⁻¹
